The values that follow come from US9138434B2, “Octahydrothienoquinoline derivative, pharmaceutical composition comprising derivative, and use of these” (KISSEI PHARMACEUTICAL CO., LTD., priority 2011, dated 2015).

By EC50 is commonly meant the concentration that produces a half-maximal response.

Experiment [1] concerns the target T1, human serotonin 5-HT2B receptor (Homo sapiens, UniProt P41595).
T1 construct: expressed in transfected cells; host or cells: HEK293, transient transfection (Lipofectamine 2000)
In words: Stimulating activities on human serotonin 5-HT2B receptor, intracellular calcium in forced expression HEK293 cells. The class given is cell-based. The method, then: Identification Test of Stimulating Activities on Human Serotonin 5-HT2B Receptor
The PCR was performed using forward primer depicted as sequence ID No. 4, reverse primer depicted as sequence ID No. 5 and KOD-Plus-Ver.2 (TOYOBO) as template of human brain hippocampus cDNA (Clontech). The PCR product was inserted into a plasmid (pcDNA3.1/V5-His-Topo (registered mark)). The PCR product-inserted plasmid was transformed in E. coli (One Shot TOP10 Chemically Competent). That E. coli was incubated in LB agar medium contained 50 μg/mL ampicillin for a day. A selected colony was incubated in LB medium contained 50 μg/mL ampicillin and PCR product-inserted plasmid was purified with QIAprep Spin Miniprep Kit (QIAGEN).
Mostly confluent HEK293 cells were washed with PBS, followed by exfoliation with 0.05% trypsin-EDTA and the cells were suspended in D-MEM liquid medium (phenol red-free, low glucose, pyruvic acid were contained) containing fetal bovine serum (final concentration: 10%) and GlutaMax (registered mark)I (final concentration: 2 mM). The suspension was scattered at 5×10^4 cells/100 L/well on poly-D-lysine-coated 96-well microplate (BD BioCoat (registered mark)). The scattered cells were cultured in 5% CO2 incubator at 37° C. Human serotonin 5-HT2B receptor expression plasmid was transfected in that cells according to the procedure seeing below.
Human serotonin 5-HT2B receptor expression plasmid and Lipofectamine (registered mark) 2000 (Invitrogen) were diluted to 0.008 g/L and 0.016 g/L each other with OPTI-MEM (registered mark)I Reduced-Serum Medium and incubated at room temperature. After incubation, the human serotonin 5-HT2B receptor exoression plasmid-diluted liquid and Lipofectamine (registered mark) 2000-diluted liquid were mixed at an equal volume and incubated at room temperature to form a complex. The complex was dispensed at 50 μL/well on the cells prepared above. The cells were incubated in 5% CO2 incubator at 37° C. for 2 days. After incubation, the cells were used as human serotonin 5-HT2B receptor forced expression cells for measurement of intracellular calcium concentration.
3) Determination of Stimulating Activities of Human Serotonin 5-HT2B Receptor
The stimulating activities of human serotonin 5-HT2B receptor was determined by measuring of intracellular calcium concentration. The 30 mM dimethyl sulfoxide (DMSO) solution contained test compounds or serotonin hydrochloride (Sigma) as positive control, was diluted with assay buffer ((HBSS), 20 mM HEPES, 1.3 mM calcium chloride, 0.5 mM magnesium chloride and 0.4 mM magnesium sulfate were contained, pH7.4) to appropriate concentration.
The forced expression cells were washed with assay buffer, and 100 μL/well of fluorescent calcium indicator (Fluo-4 NW Calcium Assay Kit) was added and incubated in 5% CO2 incubator at 37° C. After incubation, 50 μL/well of each test compound was added, and the concentration of intracellular calcium was measured as fluorescent signal with FlexStation (registered mark) II (Molecular Devices). The data was analyzed by nonlinear regression and sigmoidal dose-response curve fitting using GraphPad PRISM 4.0, and values of EC50 (concentration of the compound producing half the maximal effect of the compound) were calculated. The data was presented as mean value (n=2).
In general terms: A change in cytosolic calcium serves as a functional read-out for many receptors and channels.

In experiment [2] the test system is unilateral 6-OHDA-lesioned hemi-Parkinsonian rats. Put plainly: Contralateral rotational behavior in unilateral 6-hydroxydopamine-lesioned hemi-parkinsonian rats. Format: in vivo, rat (male Sprague-Dawley). To be noted: 10 mg/kg oral, fasted rats, observed up to 24 hours, mean; for Total number or rotations: contralateral rotations; for Duration: duration of contralateral rotation response. The procedure: 6-OHDA was dissolved at 2 mg/mL in a physiolosical saline solution containing 0.2% L-ascorbic acid. Desipramine was dissolved at 10 mg/mL in a physiolosical saline solution in a hot-water bath. Apomorphine was dissolved at 0.1 mg/mL in a physiolosical saline solution. […] Test compounds were dissolved in a solution containing 2% DMA, 100 or 200 mol % hydrochloric acid, and 98% of a 0.5% methyl cellulose solution. […] (Eur J Pharmacol, 2000, vol. 408, P. 249-255) with a minor modification. Male Sprague-Dawley rats (6-weeks-old, Charles River Laboratories Japan Inc.) were anaesthetized with intraperitoneal somnopentyl (45 mg/kg) injection and placed in a stereotaxic frame (Narishige). In order to prevent 6-OHDA-induced damage of noradrenergic neurons, desipramine (25 mg/kg) was intraperitoneally injected 30 minutes before the 6-OHDA injection. After the bregma identification via a middle calvarial incision, the skull was drilled using a dental drill at the site of 6-OHDA injection. The lesion was made by injecting 6-OHDA (8 μg in 4 μL at a speed of 1 μL/minute) unilaterally into the left medial forebrain bundle by using a injection cannula (30 gauge needle) connected to a microsyringe (Hamilton) (the lesion coordinates; A/P −2.5 mm, L/M −1.8 mm, and V/D −8.0 mm, from the bregma point and surface of the skull). The cannula was carefully removed from the animal after keeping placed on the lesion site for 5 minutes. The skull was filled its hole with dental cement, disinfected, and the scalp incision was surgically sutured. Animals recovered from anesthesia were housed as usual until the day of the experiment. 3) Determining of Contralateral Rotational Behavior Three weeks after the lesion, rats were tested on the basis of their contralateral rotational behavior (single rotation was defined as a 360° turn) in response to 0.1 mg/kg apomorphine given subcutaneously. For behavioral observation, rats were placed in plastic cylinders of a diameter of 30 cm, and its contralateral rotational behaviors were videotaped and quantified by rat-rotation auto counting system R-RACS (Kissei Wellcom). On the experimental day, animals were fasted overnight, and test compounds were orally administrated at doses of 10 mg/kg. […] Total number of rotations and the duration of the response in experimental period were presented as mean value.

The mark [3] stands for this setting: intracellular calcium (Fluo-4), HEK293 cells transiently expressing human 5-HT2B receptor, mean, n=2, read-out: EC50.

Where two headings read alike, the source gives them in different places. Some results are limits rather than exact numbers.

T1 sequence (P41595 whole entry): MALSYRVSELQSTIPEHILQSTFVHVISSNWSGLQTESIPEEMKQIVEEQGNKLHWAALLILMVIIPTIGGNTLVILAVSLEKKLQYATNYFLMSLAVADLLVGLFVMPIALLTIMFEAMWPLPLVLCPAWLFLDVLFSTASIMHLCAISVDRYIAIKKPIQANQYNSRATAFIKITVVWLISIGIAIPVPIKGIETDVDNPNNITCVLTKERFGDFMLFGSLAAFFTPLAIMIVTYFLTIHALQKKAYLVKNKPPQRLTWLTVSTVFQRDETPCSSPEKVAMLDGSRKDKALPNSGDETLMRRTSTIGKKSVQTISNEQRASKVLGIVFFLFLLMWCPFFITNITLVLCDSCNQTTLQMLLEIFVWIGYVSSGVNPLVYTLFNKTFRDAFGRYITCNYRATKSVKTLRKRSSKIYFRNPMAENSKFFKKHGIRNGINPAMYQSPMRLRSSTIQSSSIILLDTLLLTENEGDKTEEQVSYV

For `CCCN(CCC)CCc1cccc2c1CC(=O)N2` [Ropinirole, ropinirole, reference compound], in experiment [1], the EC50 came out at 2.59 µM. In experiment [2], the “Total number or rotations” value is reported as 276.3 and the Duration was found to be 61.3 min.
Turning to `CCCCN(C(=O)NCCN(C)C)C(=O)[C@@H]1C[C@@H]2Cc3c(sc(N)c3C#N)C[C@H]2N(C)C1` (relative stereo) [1-24, 1-{[(4aR*,6R*,8aR*)-2-amino-3-cyano-8-methyl-4H,4aH,5H,6H,7H,8H,8aH,9H-thieno[3,2-g]quinolin-6-yl]carbonyl}-1-butyl-3-[2-(dimethylamino)ethyl]urea], in experiment [1] (setting [3]), the EC50 was more than 10 µM. Besides, in experiment [2], the “Total number or rotations” value came to 5230.0 and the Duration is 766.3 min.
The corresponding values for `CCN(C(=O)NCCN(C)C)C(=O)[C@@H]1C[C@@H]2Cc3c(sc(N)c3C#N)C[C@H]2N(C)C1` [1-108, 1-{[(4aR,6R,8aR)-2-amino-3-cyano-8-methyl-4H,4aH,5H,6H,7H,8H,8aH,9H-thieno[3,2-g]quinolin-6-yl]carbonyl}-3-[2-(dimethylamino)ethyl]-1-ethylurea] are more than 10 µM, 2577.5 and 698.8 min.
Taken in the same sequence, the figures for `CCCN(C(=O)NCCN(C)C)C(=O)[C@@H]1C[C@@H]2Cc3c(sc(N)c3C#N)C[C@H]2N(C)C1` [1-1, 1-{[(4aR,6R,8aR)-2-amino-3-cyano-8-methyl-4H,4aH,5H, 6H,7H,8H,8aH,9H-thieno[3,2-g]quinolin-6-yl]carbonyl}-3-[2-(dimethylamino)ethyl]-1-propylurea] were more than 10 µM, 9431.8 and 1101.3 min.
Taken in the same sequence, the figures for `CCN(C(=O)NCC(C)(C)CN(C)C)C(=O)[C@@H]1C[C@@H]2Cc3c(sc(N)c3C#N)C[C@H]2N(C)C1` [1-4, 1-{[(4aR,6R,8aR)-2-amino-3-cyano-8-methyl-4H,4aH,5H,6H,7H,8H,8aH,9H-thieno[3,2-g]quinolin-6-yl]carbonyl}-3-[3-(dimethylamino)-2,2-dimethylpropyl]-1-ethlylurea] were more than 10 µM, 6338.8 and 1131.3 min.
In the case of `CCCCN(C(=O)NCCN(CC)CC)C(=O)[C@@H]1C[C@@H]2Cc3c(sc(N)c3C#N)C[C@H]2N(C)C1` [1-3, 1-{[(4aR,6R,8aR)-2-amino-3-cyano-8-methyl-4H,4aH,5H,6H,7H,8H,8aH,9H-thieno[3,2-g]quinolin-6-yl]carbonyl}-1-butyl-3-[2-(diethylamino)ethyl]urea], the EC50 in experiment [1] (setting [3]) was more than 10 µM. In experiment [2], the “Total number or rotations” value amounted to 4478.3 and the Duration stood at 845.0 min.
Taken in the same sequence, the figures for `CC(C)CCN(C(=O)NCCN(C)C)C(=O)[C@@H]1C[C@@H]2Cc3c(sc(N)c3C#N)C[C@H]2N(C)C1` (relative stereo) [1-43, 1-{[(4aR*,6R*,8aR*)-2-amino-3-cyano-8-methyl-4H,4aH,5H,6H,7H,8H,8aH,9H-thieno[3,2-g]quinolin-6-yl]carbonyl}-3-[2-(dimethylamino)ethyl]-1-(3-methylbutyl)urea] were more than 10 µM, 7557.5 and 843.8 min.
In the case of `CCCCN(C(=O)NCCN1CCCCC1)C(=O)[C@@H]1C[C@@H]2Cc3c(sc(N)c3C#N)C[C@H]2N(C)C1` (relative stereo) [1-46, 1-{[(4aR*,6R*,8aR*)-2-amino-3-cyano-8-methyl-4H,4aH,5H,6H,7H,8H,8aH,9H-thieno[3,2-g]quinolin-6-yl]carbonyl}-1-butyl-3-[2-(piperidin-1-yl)ethyl]urea], the 50% effective concentration (EC50) in experiment [1] (setting [3]) is more than 10 µM. Besides, in experiment [2], the “Total number or rotations” value turned out to be 10329.8 and the Duration amounted to 1158.8 min.
As to `CCN(C(=O)N[C@@H](C)CN(C)C)C(=O)[C@@H]1C[C@@H]2Cc3c(sc(N)c3C#N)C[C@H]2N(C)C1` [1-57, 1-{[(4aR,6R,8aR)-2-amino-3-cyano-8-methyl-4H,4aH,5H,6H, 7H,8H,8aH,9H-thieno[3,2-g]quinolin-6-yl]carbonyl}-3-[(2S)-1-(dimethylamino)propan-2-yl]-1-ethylurea], the EC50 in experiment [1] (setting [3]) is more than 10 µM. In addition, in experiment [2], the “Total number or rotations” value amounted to 9976.5 and the Duration was 1190.0 min.
